{"source": "patent US11271237B2", "about": "“Organic redox molecules for flow batteries” (UCHICAGO ARGONNE, LLC, priority 2019, dated 2022)", "key": {"[1]": {"details": "in a carbonate-based electrolyte; cited from earlier work"}, "[2]": {"assay": "Cyclic voltammetry in non-aqueous carbonate electrolyte", "type": "physicochemical", "details": "10 mM in 1.5 M LiPF6 in EC/EMC 3:7 (v/v); glassy carbon working electrode, lithium metal counter and reference; iR-correction", "experimental": "(§1) FIG. 3 provides cyclic voltammograms of 10 mM 4-(1,4-dioxabutyl)-2,2,6,6-tetramethylpiperidine-1-oxyl (TEMPO-EG1) in a non-aqueous electrolyte (1.5 M LiPF6 in a mixture of ethylene carbonate (EC) and ethyl methyl carbonate (EMC), 3:7 (v/v), respectively) at various scan rates given in mV/s. In FIG. 3, the cyclic voltammograms were measured at various rates with iR-correction applied. A glassy carbon electrode was used as the working electrode, while lithium metal strips were used as the counter and reference electrodes.\nas §1, with “FIG. 4” for “FIG. 3”, “mM 4-(1,4,7-trioxaoctyl)-2,2,6,6-tetramethylpiperidine-1-oxyl (TEMPO-EG2)” for “mM 4-(1,4-dioxabutyl)-2,2,6,6-tetramethylpiperidine-1-oxyl (TEMPO-EG1)”, “FIG. 4,” for “FIG. 3,”\nas §1, with “FIG. 5” for “FIG. 3”, “mM 4-(1,4,7,10-tetraoxaundecyl)-2,2,6,6-tetramethylpiperidine-1-oxyl (TEMPO-EG3)” for “mM 4-(1,4-dioxabutyl)-2,2,6,6-tetramethylpiperidine-1-oxyl (TEMPO-EG1)”, “FIG. 5,” for “FIG. 3,”"}, "[3]": {"assay": "Viscosity measurement with RHEOSENSE microfluidic MEMS viscometer", "type": "physicochemical", "details": "neat liquid, 23.4° C., shear rates 500-5000 s^−1 (EG1, EG2) or 100-4000 s^−1 (EG3)", "experimental": "The viscosities of liquid TEMPO derivatives were determined at 23.4° C. using a RHEOSENSE microfluidic and micro-electro-mechanical-systems (MEMS) viscometer. The RHEOSENSE viscometer is based on the viscometer-rheometer-on-a-chip (VROC) technology. For TEMPO-EG1 and EG2, shear rates were swept from 500 s^−1 to 5000 s^−1, while the viscosity of TEMPO-EG3 was measured from 100 s^−1 to 4000 s^−1. […] Longer glycol ether chains lead to increases in viscosity, but the impact differs drastically."}, "[4]": {"assay": "Cyclic voltammetry in aqueous electrolytes", "type": "physicochemical", "details": "for redox potential: Pt disk working electrode, Pt coil counter", "experimental": "Cyclic voltammograms of 10 mM TEMPO-EG3 in an aqueous electrolyte (1 M aqueous sulfuric acid) were measured at various scan rates given in mV/s. A Pt disk was used as the working electrode, while the counter electrode was a Pt coil and the reference electrode was Ag/AgCl.\nCyclic voltammograms of 10 mM TEMPO-EG3 in an aqueous electrolyte (1M aqueous sodium chloride) were measured at various scan rates given in mV/s. A Pt disk was used as the working electrode, while the counter electrode was a Pt coil and the reference electrode was Ag/AgCl."}}}
{"smiles": "COCCOc1cc(C(C)(C)C)c(OC)cc1C(C)(C)C", "note": "[DBMMEB, 1,4-di-tert-butyl-2-methoxy-5-(2-rnethoxyethoxy)benzene]", "values": [{"measurement": "solubility", "setting": "[1]", "value": 600, "unit": "mM"}]}
{"smiles": "COCCOC1CC(C)(C)N([O])C(C)(C)C1", "note": "[TEMPO-EG1, 4-(2-methoxyethoxy)-2,2,6,6-tetramethylpiperidine-1-oxyl]", "values": [{"measurement": "redox potential", "setting": "[2]", "value": 3.53, "unit": "V vs. Li/Li^+"}, {"measurement": "viscosity", "setting": "[3]", "value": 10.23, "unit": "mPa·s"}]}
{"smiles": "COCCOCCOC1CC(C)(C)N([O])C(C)(C)C1", "note": "[TEMPO-EG2, 4-(3,6-dioxaheptyloxy)-2,2,6,6-tetramethylpiperidine-1-oxyl]", "values": [{"measurement": "redox potential", "setting": "[2]", "value": 3.53, "unit": "V vs. Li/Li^+"}, {"measurement": "viscosity", "setting": "[3]", "value": 10.88, "unit": "mPa·s"}]}
{"smiles": "COCCOCCOCCOC1CC(C)(C)N([O])C(C)(C)C1", "note": "[TEMPO-EG3, 4-(3,6,9-trioxadecyloxy)-2,2,6,6-tetramethylpiperidine-1-oxyl]", "values": [{"measurement": "redox potential", "setting": "[2]", "value": 3.53, "unit": "V vs. Li/Li^+"}, {"measurement": "redox potential", "setting": "[4]; 10 mM in 1M aqueous sodium chloride (neutral electrolyte)", "value": "about 0.59 V vs. Ag/AgCl"}, {"measurement": "redox potential", "setting": "[4]; 10 mM in 1 M aqueous sulfuric acid (acidic electrolyte)", "value": "about 0.55 V vs. Ag/AgCl"}, {"measurement": "electrochemical reversibility", "setting": "[4]; cyclic voltammetry in common aqueous electrolytes", "value": "excellent electrochemical reversibility"}, {"measurement": "viscosity", "setting": "[3]", "value": 21.30, "unit": "mPa·s"}]}
